Laboratory results taken from patent US7704997B1, “Amino-tetrazole analogues and methods of use” (Abbott Laboratories, priority 2004, dated 2010).

Target: T1, P2X7 receptor (Homo sapiens, UniProt Q99572)
T1 construct: host or cells: THP-1 monocytic cells differentiated overnight with LPS (25 ng/ml) and IFN-gamma (10 ng/ml)
T1 sequence (Q99572 1-595): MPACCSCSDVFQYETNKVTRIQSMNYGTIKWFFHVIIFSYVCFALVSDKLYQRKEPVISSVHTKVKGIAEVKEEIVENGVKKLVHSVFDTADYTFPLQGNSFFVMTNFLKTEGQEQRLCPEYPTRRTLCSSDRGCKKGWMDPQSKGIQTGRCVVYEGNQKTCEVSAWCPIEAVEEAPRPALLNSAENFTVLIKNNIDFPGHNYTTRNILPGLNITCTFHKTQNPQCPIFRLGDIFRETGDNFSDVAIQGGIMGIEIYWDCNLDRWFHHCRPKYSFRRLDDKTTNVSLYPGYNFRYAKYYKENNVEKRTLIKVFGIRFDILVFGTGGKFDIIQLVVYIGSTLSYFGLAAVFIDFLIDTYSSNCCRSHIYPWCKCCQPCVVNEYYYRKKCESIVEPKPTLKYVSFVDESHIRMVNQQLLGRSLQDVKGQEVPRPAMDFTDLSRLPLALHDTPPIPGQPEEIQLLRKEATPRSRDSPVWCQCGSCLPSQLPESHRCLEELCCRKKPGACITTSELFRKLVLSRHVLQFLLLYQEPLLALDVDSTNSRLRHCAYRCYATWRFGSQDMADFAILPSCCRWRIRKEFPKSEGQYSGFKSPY
Assay: P2X7 mediated pore formation (YO-PRO dye uptake, FLIPR)
Format: cell-based
Conditions: THP-1 cells
Excerpt: Tissue Culture: Cells of the THP-1 monocytic cell line (American Type Culture Collection, Rockville, Md.) were maintained in the log phase of growth in RPMI medium containing high glucose and 10% fetal calf serum (Invitrogen, Carlsbad, Calif.) according to established procedures (Humphrey B D and Dubyak G R (1996), Induction of the P2z/P2X7 Nucleotide Receptor and Associated Phospholipase D Activity by Lipopolysaccharide and IFN-γ in the Human THP-1 Monocytic Cell Line. J. Immunology 157:5627-37). Fresh vials of frozen THP-1 cells were initiated for growth every eight weeks. […]
P2X7 Mediated Pore Formation. […] Accordingly, the inhibitory activity of the antagonists of the present invention was determined by their capacity to inhibit the agonist-induced pore formation using the fluorescent dye YO-PRO (MW=629) and Fluorometric Imaging Plate Reader (FLIPR, Molecular Devices, Sunnydale, Calif.). […] The intensity of the fluorescence was captured by the CCD camera every 15 seconds for the first 10 minutes of agonist exposure followed by every 20 seconds for an additional 50 minutes with the data being digitally transferred to an interfaced PC. […] The test compounds were incubated for 10 minutes with the THP-1 cells at room temperature, after which the cells were stimulated with BzATP and fluorescence measured as described above in the […] of the antagonist. […]

EC70 value for agonist activation: 50 µM
Substance: benzoylbenzoic ATP [BzATP]
